According to patent US20250051344A1, “BIFUNCTIONAL SELECTIVE DEGRADERS OF SMARCA2 AND THERAPEUTIC USES THEREOF” (Nurix Therapeutics, Inc., priority 2023, published 2025):

Columns and labels:
SMARCA2 = molecular target: T1, SMARCA2 (Homo sapiens, UniProt P51531); test: SMARCA2 Cellular Degradation Assay (Western blot analysis on Jess platform); type: cell-based; conditions: for DC50 / Dmax: cellular degradation; for Fold Selectivity SMARCA4/2: ratio DC50 SMARCA4 / DC50 SMARCA2
T1 construct: endogenous in cells
Procedure, shortened: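 Readout: Jess Simple Western of tumor-extracted cell lysates, SMARCA2 area over actin area after background subtraction, shown as percentage of vehicle control.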

SMARCA4 = molecular target: T2, SMARCA4 (Homo sapiens, UniProt P51532); test: Cellular degradation assay, SMARCA4 (Table 1); type: cell-based
T2 construct: endogenous in cells
T2 sequence (P51532 whole entry, species assumed): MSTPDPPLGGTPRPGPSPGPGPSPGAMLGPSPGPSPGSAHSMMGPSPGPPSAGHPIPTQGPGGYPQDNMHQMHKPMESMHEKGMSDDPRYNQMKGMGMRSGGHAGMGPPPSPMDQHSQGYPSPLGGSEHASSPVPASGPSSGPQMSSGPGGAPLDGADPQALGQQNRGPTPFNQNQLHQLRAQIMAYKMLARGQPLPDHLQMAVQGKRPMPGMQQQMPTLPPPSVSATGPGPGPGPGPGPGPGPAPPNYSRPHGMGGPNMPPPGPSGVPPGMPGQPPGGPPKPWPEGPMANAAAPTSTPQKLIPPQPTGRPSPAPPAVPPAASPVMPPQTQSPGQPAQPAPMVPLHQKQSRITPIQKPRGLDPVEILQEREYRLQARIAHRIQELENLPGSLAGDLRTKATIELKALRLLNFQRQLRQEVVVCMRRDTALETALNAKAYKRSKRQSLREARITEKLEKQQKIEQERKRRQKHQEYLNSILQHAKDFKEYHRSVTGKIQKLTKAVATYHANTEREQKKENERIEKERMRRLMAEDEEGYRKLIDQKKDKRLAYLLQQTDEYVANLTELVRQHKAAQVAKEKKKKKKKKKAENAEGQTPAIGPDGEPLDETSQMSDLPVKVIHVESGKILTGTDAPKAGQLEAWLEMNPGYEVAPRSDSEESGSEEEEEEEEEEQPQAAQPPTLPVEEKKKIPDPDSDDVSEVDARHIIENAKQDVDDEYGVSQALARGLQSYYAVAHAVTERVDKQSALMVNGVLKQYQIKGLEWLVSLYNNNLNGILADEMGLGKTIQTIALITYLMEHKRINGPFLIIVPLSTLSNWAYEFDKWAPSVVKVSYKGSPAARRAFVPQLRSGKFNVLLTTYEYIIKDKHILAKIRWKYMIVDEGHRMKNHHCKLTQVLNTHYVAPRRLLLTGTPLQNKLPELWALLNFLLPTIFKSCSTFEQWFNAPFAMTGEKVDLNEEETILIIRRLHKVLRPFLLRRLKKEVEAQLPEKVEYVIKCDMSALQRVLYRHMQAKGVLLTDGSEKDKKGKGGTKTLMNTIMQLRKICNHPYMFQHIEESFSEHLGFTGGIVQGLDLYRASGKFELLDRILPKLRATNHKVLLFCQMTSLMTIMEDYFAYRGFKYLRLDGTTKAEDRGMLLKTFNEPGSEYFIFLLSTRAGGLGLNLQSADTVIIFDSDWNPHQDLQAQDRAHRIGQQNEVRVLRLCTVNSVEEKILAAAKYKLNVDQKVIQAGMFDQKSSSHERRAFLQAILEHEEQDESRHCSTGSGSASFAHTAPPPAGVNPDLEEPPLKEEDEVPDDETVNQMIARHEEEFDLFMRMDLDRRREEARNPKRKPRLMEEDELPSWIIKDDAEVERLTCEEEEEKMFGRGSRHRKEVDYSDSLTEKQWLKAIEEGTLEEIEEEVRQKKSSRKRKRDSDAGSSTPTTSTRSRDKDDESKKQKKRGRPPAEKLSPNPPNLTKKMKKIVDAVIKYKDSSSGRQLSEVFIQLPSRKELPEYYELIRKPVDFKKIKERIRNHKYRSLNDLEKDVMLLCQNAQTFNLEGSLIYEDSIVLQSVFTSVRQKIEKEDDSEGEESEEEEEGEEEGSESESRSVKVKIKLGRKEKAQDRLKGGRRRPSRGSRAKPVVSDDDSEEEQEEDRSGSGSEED

T1 sequence (P51531 whole entry, species assumed): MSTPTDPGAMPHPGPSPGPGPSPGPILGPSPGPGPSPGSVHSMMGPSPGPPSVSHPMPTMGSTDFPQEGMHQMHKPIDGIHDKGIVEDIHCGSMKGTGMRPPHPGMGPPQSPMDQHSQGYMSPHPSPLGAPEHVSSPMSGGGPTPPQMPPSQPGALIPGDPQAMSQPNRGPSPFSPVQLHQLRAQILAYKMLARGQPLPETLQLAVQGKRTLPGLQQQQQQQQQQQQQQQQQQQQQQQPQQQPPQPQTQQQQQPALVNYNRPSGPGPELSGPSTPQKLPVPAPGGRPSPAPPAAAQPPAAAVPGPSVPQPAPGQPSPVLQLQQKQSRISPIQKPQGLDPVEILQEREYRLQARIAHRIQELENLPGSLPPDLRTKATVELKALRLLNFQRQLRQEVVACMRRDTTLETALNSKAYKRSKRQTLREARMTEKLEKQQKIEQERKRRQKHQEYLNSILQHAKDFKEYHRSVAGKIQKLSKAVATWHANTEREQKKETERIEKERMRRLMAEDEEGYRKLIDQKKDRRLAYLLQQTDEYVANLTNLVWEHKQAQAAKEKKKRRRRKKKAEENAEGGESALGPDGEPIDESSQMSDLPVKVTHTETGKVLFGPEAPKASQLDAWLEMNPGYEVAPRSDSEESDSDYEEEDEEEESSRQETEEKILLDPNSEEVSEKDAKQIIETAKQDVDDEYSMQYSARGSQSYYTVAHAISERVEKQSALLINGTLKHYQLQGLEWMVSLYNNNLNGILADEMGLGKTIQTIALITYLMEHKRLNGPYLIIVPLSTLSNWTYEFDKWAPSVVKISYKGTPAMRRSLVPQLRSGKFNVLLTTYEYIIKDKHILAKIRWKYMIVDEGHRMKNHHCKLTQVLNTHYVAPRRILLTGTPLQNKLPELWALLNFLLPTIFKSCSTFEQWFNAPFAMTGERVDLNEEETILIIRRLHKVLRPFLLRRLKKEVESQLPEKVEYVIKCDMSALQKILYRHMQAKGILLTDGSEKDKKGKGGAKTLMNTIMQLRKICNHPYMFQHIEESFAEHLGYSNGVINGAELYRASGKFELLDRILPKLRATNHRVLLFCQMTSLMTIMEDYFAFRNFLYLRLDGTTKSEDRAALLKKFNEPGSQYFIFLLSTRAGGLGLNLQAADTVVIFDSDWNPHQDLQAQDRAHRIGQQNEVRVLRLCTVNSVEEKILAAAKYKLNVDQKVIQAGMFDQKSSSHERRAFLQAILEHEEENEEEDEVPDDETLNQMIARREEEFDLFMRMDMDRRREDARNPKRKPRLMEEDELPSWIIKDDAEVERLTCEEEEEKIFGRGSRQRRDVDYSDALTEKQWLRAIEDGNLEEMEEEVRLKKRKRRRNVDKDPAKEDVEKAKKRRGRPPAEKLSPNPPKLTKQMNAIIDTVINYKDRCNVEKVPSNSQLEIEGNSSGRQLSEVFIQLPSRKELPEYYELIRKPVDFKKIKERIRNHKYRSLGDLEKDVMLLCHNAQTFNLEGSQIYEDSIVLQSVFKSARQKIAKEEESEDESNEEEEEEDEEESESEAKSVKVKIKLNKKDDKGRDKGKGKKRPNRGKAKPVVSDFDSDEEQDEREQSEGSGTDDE

| Compound | DC50 (SMARCA2) [nM] | Dmax (SMARCA2) [%] | Fold Selectivity SMARCA4/2 (SMARCA2) | Dmax (SMARCA4) [%] | DC50 (SMARCA4) [nM] |
| --- | --- | --- | --- | --- | --- |
| C[C@H]1C[C@H](NC(=O)C2(c3ccccc3)CCN(c3cnnc(-c4ccccc4O)c3)CC2)CCN1C(=O)CN1CCC(c2ccc([C@H]3CCC(=O)NC3=O)cc2)CC1 (racemic) [Example 76, n-((2s,4r)-1-(2-(4-(4-((rs)-2,6-dioxopiperidin-3-yl)phenyl)piperidin-1-yl)acetyl)-2-methylpiperidin-4-yl)-1-(6-(2-hydroxyphenyl)pyridazin-4-yl)-4-phenylpiperidine-4-carboxamide] | 9.53 | 83.5 | 1049 | 24.7 | – |
| O=C1CC[C@H](c2ccc(N3CCC(CCN4CCC(N(C(=O)C5(c6ccccc6)CCN(c6cnnc(-c7ccccc7O)c6)CC5)C5CC5)CC4)CC3)cc2)C(=O)N1 [Example 74, N-cyclopropyl-N-{1-[2-(1-{4-[(3r)-2,6-dioxopiperidin-3-yl]phenyl}piperidin-4-yl)ethyl]piperidin-4-yl}-1-[6-(2-hydroxyphenyl)pyridazin-4-yl]-4-phenylpiperidine-4-carboxamide] | 1.88 | 94.2 | 32 | 69.2 | 59.3 |
| O=C1CC[C@H](c2ccc(N3CCC(CN4CC5(C4)CN(C(=O)C4(c6ccccc6)CCN(c6cnnc(-c7ccccc7O)c6)CC4)C5)CC3)cc2)C(=O)N1 [Example 15, (3R)-3-(4-{4-[(6-{1-[6-(2-hydroxyphenyl)pyridazin-4-yl]-4-phenylpiperidine-4-carbonyl}-2,6-diazaspiro[3.3]heptan-2-yl)methyl]piperidin-1-yl}phenyl)piperidine-2,6-dione] | 14.8 | 79.9 | 340.31 | 49.3 | 5030 |
| O=C1CC[C@H](NC(=O)c2ccc(N3CCC(CN4CCC(NC(=O)C5(c6ccccc6)CCN(c6cnnc(-c7ccccc7O)c6)CC5)CC4)CC3)nc2)C(=O)N1 [Example 156, N-[(3S)-2,6-dioxopiperidin-3-yl]-6-{4-[(4-{l-[6-(2-hydroxyphenyl)pyridazin-4-yl]-4-phenylpiperidine-4-amido}piperidin-1-yl)methyl]piperidin-1-yl}pyridine-3-carboxamide] | 38.5 | 63.2 | 260 | 36 | – |
| O=C1CCC(c2ccc(N3CCC(C(=O)N4CC5(C4)CN(C(=O)C4(c6ccccc6)CCN(c6cnnc(-c7ccccc7O)c6)CC4)C5)CC3)cc2)C(=O)N1 (racemic) [Example 20, rac-(3R)-3-{4-[4-(6-{1-[6-(2-hydroxyphenyl)pyridazin-4-yl]-4-phenylpiperidine-4-carbonyl}-2,6-diazaspiro[3.3]heptane-2-carbonyl)piperidin-1-yl]phenyl}piperidine-2,6-dione] | 24.6 | 67.5 | 406.6 | 48.3 | – |
| Cc1ccn(C2(C(=O)NC3CCN(CC4CCN(c5ccc([C@H]6CCC(=O)NC6=O)cc5)CC4)C4(CCC4)C3)CCN(c3cnnc(-c4ccccc4O)c3)CC2)n1 (stereo partly drawn) [Example 162, N-{5-[(1-{4-[(3R)-2,6-dioxopiperidin-3-yl]phenyl}piperidin-4-yl)methyl]-5-azaspiro[3.5]nonan-8-yl}-1-[6-(2-hydroxyphenyl)pyridazin-4-yl]-4-(3-methyl-1H-pyrazol-1-yl)piperidine-4-carboxamide] | 2.62 | 84.7 | 10 | 63.9 | 25.9 |
| O=C1CCC(c2ccc(N3CCC(CN4CC5(C4)CN(C(=O)C4(c6ccccc6)CCN(c6cnnc(-c7ccccc7O)c6)CC4)C5)CC3)c(F)c2F)C(=O)N1 (racemic) [Example 138, rac-(3R)-3-(2,3-difluoro-4-{4-[(6-{1-[6-(2-hydroxyphenyl)pyridazin-4-yl]-4-phenylpiperidine-4-carbonyl}-2,6-diazaspiro[3.3]heptan-2-yl)methyl]piperidin-1-yl}phenyl)piperidine-2,6-dione] | 4.09 | 89 | 9 | 67.1 | 38.3 |
| COc1cccc(C2(C(=O)N(C)C3CCN(CCC4CCN(c5ccc([C@H]6CCC(=O)NC6=O)cc5)CC4)CC3)CCN(c3cnnc(-c4ccccc4O)c3)CC2)c1 [Example 139, N-{1-[2-(1-{4-[(3R)-2,6-dioxopiperidin-3-yl]phenyl}piperidin-4-yl)ethyl]piperidin-4-yl}-1-[6-(2-hydroxyphenyl)pyridazin-4-yl]-4-(3-methoxyphenyl)-N-methylpiperidine-4-carboxamide] | 4.55 | 89.2 | 37 | 54 | 167 |
| O=C1CC[C@H](c2ccc(N3CCC(CN4CCC(C5CCN(C(=O)C6(c7ccccc7)CCN(c7cnnc(-c8ccccc8O)c7)CC6)CC5)C4)CC3)cc2)C(=O)N1 (stereo partly drawn) [Example 48, (3R)-3-[4-(4-{[3-(1-{1-[6-(2-hydroxyphenyl)pyridazin-4-yl]-4-phenylpiperidine-4-carbonyl}piperidin-4-yl)pyrrolidin-1-yl]methyl}piperidin-1-yl)phenyl]piperidine-2,6-dione] | – | 35.6 | 1 | 16.3 | – |
| O=C1CC[C@@H](c2ccc(N3CCC(CN4CCC5(C4)CN(C(=O)C4(c6ccccc6)CCN(c6cnnc(-c7ccccc7O)c6)CC4)C5)CC3)cc2)C(=O)N1 [Example 9, (3S)-3-(4-{4-[(2-{1-[6-(2-hydroxyphenyl)pyridazin-4-yl]-4-phenylpiperidine-4-carbonyl}-2,6-diazaspiro[3.4]octan-6-yl)methyl]piperidin-1-yl}phenyl)piperidine-2,6-dione] | 19.9 | 75.2 | 336.59 | 44.7 | 6720 |
| Cn1c(=O)n([C@H]2CCC(=O)NC2=O)c2cccc(N3CCC(C(=O)N4C[C@@H]5[C@H](C4)[C@H]5C(=O)NCC4(c5ccccc5)CCN(c5cnnc(-c6ccccc6O)c5)CC4)CC3)c21 (racemic) [Example 72, (1r,5s,6r)-3-(1-(1-((rs)-2,6-dioxopiperidin-3-yl)-3-methyl-2-oxo-2,3-dihydro-1h-benzo[d]imidazol-4-yl)piperidine-4-carbonyl)-n-((1-(6-(2-hydroxyphenyl)pyridazin-4-yl)-4-phenylpiperidin-4-yl)methyl)-3-azabicyclo[3.1.0]hexane-6-carboxamide] | 0.61 | 95.8 | 42 | 75.4 | 25.9 |
| CC1(C)CC(NC(=O)C2(c3ccccc3)CCN(c3cnnc(-c4ccccc4O)c3)CC2)CCN1CC1CCN(c2ccc([C@H]3CCC(=O)NC3=O)cc2)CC1 (stereo partly drawn) [Example 183, N-{1-[(1-{4-[(3R)-2,6-dioxopiperidin-3-yl]phenyl}piperidin-4-yl)methyl]-2,2-dimethylpiperidin-4-yl}-1-[6-(2-hydroxyphenyl)pyridazin-4-yl]-4-phenylpiperidine-4-carboxamide] | 6.43 | 80.7 | 39 | 56.2 | 249 |
| O=C1CC[C@H](c2ccc(N3CCC(CNC4CC5CCCC(C4)C5NC(=O)C4(c5ccccc5)CCN(c5cnnc(-c6ccccc6O)c5)CC4)CC3)cc2)C(=O)N1 (stereo partly drawn) [Example 49, N-(3-{[(1-{4-[(3R)-2,6-dioxopiperidin-3-yl]phenyl}piperidin-4-yl)methyl]amino}bicyclo[3.3.1]nonan-9-yl)-1-[6-(2-hydroxyphenyl)pyridazin-4-yl]-4-phenylpiperidine-4-carboxamide] | 26.4 | 76.9 | 6.52 | 59.8 | 172 |
| Cn1c(=O)n(C2CCC(=O)NC2=O)c2ccc(N3CCC(CN4CCC(NC(=O)C5(c6ccccc6)CCN(c6cnnc(-c7ccccc7O)c6)CC5)CC4)CC3)cc21 (racemic) [Example 158, rac-N-{1-[(1-{1-[(3R)-2,6-dioxopiperidin-3-yl]-3-methyl-2-oxo-2,3-dihydro-1H-1,3-benzodiazol-5-yl}piperidin-4-yl)methyl]piperidin-4-yl}-1-[6-(2-hydroxyphenyl)pyridazin-4-yl]-4-phenylpiperidine-4-carboxamide] | 0.44 | 92 | 3 | 88.5 | 1.36 |
| COC1(C(=O)N(C)C2CCN(CCC3CCN(c4ccc(C5CCC(=O)NC5=O)cc4)CC3)CC2)CCN(c2cnnc(-c3ccccc3O)c2)CC1 (racemic) [Example 195, rac-N-(1-(2-(1-(4-(2,6-dioxopiperidin-3-yl)phenyl)piperidin-4-yl)ethyl)piperidin-4-yl)-1-(6-(2-hydroxyphenyl)pyridazin-4-yl)-4-methoxy-n-methylpiperidine-4-carboxamide] | 13.7 | 70 | 727 | 20.3 | – |
| O=C1CCC(c2ccc(N3CCC4(CC3)CC(CN3CC5(CCN(C(=O)C6(c7ccccc7)CCN(c7cnnc(-c8ccccc8O)c7)CC6)CC5)C3)C4)cc2)C(=O)N1 (racemic) [Example 137, rac-(3R)-3-(4-{2-[(7-{1-[6-(2-hydroxyphenyl)pyridazin-4-yl]-4-phenylpiperidine-4-carbonyl}-2,7-diazaspiro[3.5]nonan-2-yl)methyl]-7-azaspiro[3.5]nonan-7-yl}phenyl)piperidine-2,6-dione] | 44.4 | 66.3 | 225 | 44.9 | – |
| COc1ccccc1C1(C(=O)N2CC3(C2)CN(C2COC4(CCN(c5ccc([C@H]6CCC(=O)NC6=O)cc5)CC4)C2)C3)CCN(c2cnnc(-c3ccccc3O)c2)CC1 (mixture of isomers) [Example 106, (3R)-3-{4-[(3RS)-3-(6-{1-[6-(2-hydroxyphenyl)pyridazin-4-yl]-4-(2-methoxyphenyl)piperidine-4-carbonyl}-2,6-diazaspiro[3.3]heptan-2-yl)-1-oxa-8-azaspiro[4.5]decan-8-yl]phenyl}piperidine-2,6-dione] | 4.91 | 78.3 | 7 | 59.4 | 32.2 |
